Here are results for two compounds from patent US6403125B1, “Utilization of an extract of a plant of the Cecropia genus” (Cognis France (Societe Anonyme), priority 1998, dated 2002).

The assay has as its system human adipocytes. Briefly: Lipolysis activation on human adipocytes in vitro (glycerin release). In kind it is cell-based. Particulars: 90 minutes at 37° C. The text has this:
I. Evidence of the Lipolysis Activation Effect on Human Adipocytes in “in vitro” Survival The test used to emphasise the lipolysis activation of human adipocytes in the presence of Cecropia extracts, which are the subject of the present invention, is described below. Lipolysis is removal of triglycerides (or TG) stored in the adipocytes by a hormone-sensitive enzyme, triglyceride lipase (or TGL) which splits the TG into free fatty acids and glycerin which are removed in the blood circulation. The fatty acids can then be absorbed by the muscle cells to produce energy. 1) Principle of the in vitro Test Activation of lipolysis is evaluated by spectrophotometric metering of the rate of glycerin salted out by adipocytes, incubated “in vitro” with the substance to be tested present. The adipocytes are isolated by enzymatic digestion of subcutaneous human tissue by the so-called Rodbell method (see M. Rodbell: “Metabolism of isolated fat cells”. The journal of biological chemistry, Vol. 239, No. 2, pages 375 to 380, 1964). […] 3) Quantisation of the Lipolysis The rate of salted-out glycerin is quantified by spectrophotometry in the medium of the material which floats on the surface by the method described by C. […] The results are expressed as mean values of the activation percentage relative to a proof mass batch (without Cecropia extract).

SMILES strings stand for the structures.

For `Cn1c(=O)c2[nH]cnc2n(C)c1=O` [Theophylline, theophylline], the “% activation of the lipolysis relative to the proof mass without extract (mean)” value (1 mM) is listed as “+ 70%”.
In the case of `CC(C)NCC(O)c1ccc(O)c(O)c1` (centres unmarked) [Isoprenaline, isoprenaline], the “% activation of the lipolysis relative to the proof mass without extract (mean)” value (0.1 μM) was “+ 45%”.
